Source: PMC11868595, “Safety, pharmacokinetics and efficacy of HA121-28 in patients with advanced solid tumors and RET fusion-positive non-small-cell lung cancer: a multicenter, open-label, single-arm phase 1/2 trial” (Signal Transduction and Targeted Therapy, 2025)
Marks after values point to notes of the source that are not given here.

Legend:
[1] = tested on: patients of phase 1 and phase 2 trials; assay: Phase 1/2 pooled TRAEs with or without previous immunotherapy; assay type: in vivo, human
Experimental: Treatment-emergent adverse events (TEAEs) were documented during the entire study period. The predefined adverse event of special interest (AESI) was ≥ grade 3 prolonged QT interval. Tumor imaging was performed using contrast-enhanced computed tomography or magnetic resonance imaging at screening, Day 28 of the first cycle, then approximately every eight weeks till the end of the study for phase 1; in phase 2, imaging was scheduled at screening, and every eight weeks during the first 40 weeks, followed by every 12 weeks for the rest of the study period. RECIST 1.1 was used by the independent review committee or investigators for assessment of tumor response. After the original assessment, a repeated assessment was required around four weeks later to confirm a complete or partial response.
The full analysis set consisted of all patients who had administered at least one dose of HA121-28 and was used to calculate the baseline characteristics, OS, and PFS results. The safety set included all patients who had administered at least one dose of the HA121-28 and had at least one safety-related observation. This population was used for analysis of TEAEs. The efficacy evaluable set consisted of patients who had administered at least one dose of HA121-28 and completed at least one efficacy assessment following study treatment. This population was used to calculate the ORR, DOR, and DCR. In addition, the ORRs for subgroup analyses, including age ( < 60, ≥60), ECOG PS (0 or 1), gender (male or female), prior treatment with TKIs (yes or no), brain or liver metastasis (yes or no), were also calculated. The plasma drug concentration-time profile was characterized using PK concentration set that included patients who had administered at least one dose of HA121-28 and had at least one measurable plasma concentration of HA121-28. The PK parameter set was used to calculate PK parameters, which consisted of patients who had administered at least one dose of HA121-28 with at least one valid PK parameter. ORR and DCR were described using the Clopper-Pearson method with two-sided 95% confidence intervals (CIs). PFS and DOR were assessed using the Kaplan-Meier method, including an estimate of the median, along with corresponding 95% CIs. Statistical analyses of clinical outcomes were conducted by SAS (version 9.4 or later) and R software 4.1.0 for genomic DNA from pre-treatment tumor tissue (http://cran.r-project.org).

FLT-1 = FLT-1 (Homo sapiens, UniProt P17948); assay: Tyrosine kinase inhibition; assay type: biochemical; conditions: read-out: IC50, FLT1
Sequence of FLT-1 (P17948 27-1338): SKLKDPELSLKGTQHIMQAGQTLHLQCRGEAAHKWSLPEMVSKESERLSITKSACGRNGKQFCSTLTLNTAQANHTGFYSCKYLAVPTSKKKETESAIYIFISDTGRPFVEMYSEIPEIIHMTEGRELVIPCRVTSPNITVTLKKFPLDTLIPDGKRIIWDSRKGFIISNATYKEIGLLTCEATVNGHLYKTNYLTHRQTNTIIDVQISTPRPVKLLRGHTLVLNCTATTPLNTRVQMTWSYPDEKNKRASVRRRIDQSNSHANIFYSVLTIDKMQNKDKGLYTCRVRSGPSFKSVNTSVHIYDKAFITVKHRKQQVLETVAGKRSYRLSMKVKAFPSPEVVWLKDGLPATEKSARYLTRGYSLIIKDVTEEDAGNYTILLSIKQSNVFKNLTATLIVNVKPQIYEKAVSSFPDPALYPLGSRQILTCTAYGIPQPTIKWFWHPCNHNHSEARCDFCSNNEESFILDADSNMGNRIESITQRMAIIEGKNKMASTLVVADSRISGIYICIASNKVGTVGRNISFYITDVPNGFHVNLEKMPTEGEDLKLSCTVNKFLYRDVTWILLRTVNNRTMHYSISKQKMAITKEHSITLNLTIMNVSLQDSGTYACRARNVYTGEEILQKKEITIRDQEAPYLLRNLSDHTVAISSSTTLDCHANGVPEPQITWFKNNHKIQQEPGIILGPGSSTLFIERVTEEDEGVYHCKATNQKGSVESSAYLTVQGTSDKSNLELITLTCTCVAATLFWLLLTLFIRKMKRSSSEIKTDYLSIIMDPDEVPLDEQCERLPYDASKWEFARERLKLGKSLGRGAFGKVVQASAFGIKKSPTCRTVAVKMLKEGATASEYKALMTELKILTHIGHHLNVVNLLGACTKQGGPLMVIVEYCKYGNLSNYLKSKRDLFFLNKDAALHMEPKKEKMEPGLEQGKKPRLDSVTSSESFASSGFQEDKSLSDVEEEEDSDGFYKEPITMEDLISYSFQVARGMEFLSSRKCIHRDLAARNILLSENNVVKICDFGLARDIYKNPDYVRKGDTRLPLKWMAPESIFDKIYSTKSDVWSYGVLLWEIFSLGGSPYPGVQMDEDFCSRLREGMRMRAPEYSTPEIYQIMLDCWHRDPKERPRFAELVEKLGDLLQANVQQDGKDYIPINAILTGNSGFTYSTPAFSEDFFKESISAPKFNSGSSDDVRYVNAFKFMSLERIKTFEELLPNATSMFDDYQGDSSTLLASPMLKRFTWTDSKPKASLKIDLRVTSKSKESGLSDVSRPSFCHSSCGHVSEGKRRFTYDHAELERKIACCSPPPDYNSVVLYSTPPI

EphA1 = EphA1 (Homo sapiens, UniProt P21709); assay: Tyrosine kinase inhibition; assay type: biochemical
Sequence of EphA1 (P21709 26-976): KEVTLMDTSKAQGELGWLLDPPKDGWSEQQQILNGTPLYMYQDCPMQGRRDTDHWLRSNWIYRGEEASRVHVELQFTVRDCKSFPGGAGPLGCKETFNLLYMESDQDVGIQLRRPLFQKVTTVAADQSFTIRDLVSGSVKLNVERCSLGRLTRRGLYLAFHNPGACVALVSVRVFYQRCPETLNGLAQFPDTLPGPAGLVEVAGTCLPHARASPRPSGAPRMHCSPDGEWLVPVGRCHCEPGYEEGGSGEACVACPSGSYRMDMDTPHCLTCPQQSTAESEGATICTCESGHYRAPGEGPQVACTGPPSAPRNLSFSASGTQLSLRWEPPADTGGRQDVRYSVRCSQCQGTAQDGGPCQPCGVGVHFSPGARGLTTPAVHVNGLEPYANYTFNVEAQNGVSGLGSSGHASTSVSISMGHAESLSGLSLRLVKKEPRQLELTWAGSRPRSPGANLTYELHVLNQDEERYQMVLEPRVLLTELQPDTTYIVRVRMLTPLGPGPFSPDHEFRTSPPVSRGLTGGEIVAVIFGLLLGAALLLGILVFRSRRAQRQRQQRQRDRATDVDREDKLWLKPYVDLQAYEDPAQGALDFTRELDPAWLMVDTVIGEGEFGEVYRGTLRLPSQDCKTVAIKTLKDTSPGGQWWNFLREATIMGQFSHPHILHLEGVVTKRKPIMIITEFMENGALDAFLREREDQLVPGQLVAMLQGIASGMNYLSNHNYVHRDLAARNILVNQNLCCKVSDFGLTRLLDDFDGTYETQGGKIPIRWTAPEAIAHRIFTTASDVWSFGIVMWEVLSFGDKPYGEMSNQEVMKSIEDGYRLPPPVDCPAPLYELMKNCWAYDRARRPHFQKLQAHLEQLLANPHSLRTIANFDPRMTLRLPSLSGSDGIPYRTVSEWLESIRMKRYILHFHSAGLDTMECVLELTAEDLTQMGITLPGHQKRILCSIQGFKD

[2] = tested on: human melanoma A375 tumors; assay: A375 tumors in nude mice; assay type: in vivo
Plasma protein binding = assay type: in vitro ADME; conditions: monkeys
[3] = Safety pharmacology: respiratory function and neurological behavior; assay type: in vivo, rats; conditions: single oral dose 30, 100, and 300 mg/kg
FGFR4 = FGFR4 (Homo sapiens, UniProt P22455); assay: Tyrosine kinase inhibition; assay type: biochemical
Sequence of FGFR4 (P22455 22-802): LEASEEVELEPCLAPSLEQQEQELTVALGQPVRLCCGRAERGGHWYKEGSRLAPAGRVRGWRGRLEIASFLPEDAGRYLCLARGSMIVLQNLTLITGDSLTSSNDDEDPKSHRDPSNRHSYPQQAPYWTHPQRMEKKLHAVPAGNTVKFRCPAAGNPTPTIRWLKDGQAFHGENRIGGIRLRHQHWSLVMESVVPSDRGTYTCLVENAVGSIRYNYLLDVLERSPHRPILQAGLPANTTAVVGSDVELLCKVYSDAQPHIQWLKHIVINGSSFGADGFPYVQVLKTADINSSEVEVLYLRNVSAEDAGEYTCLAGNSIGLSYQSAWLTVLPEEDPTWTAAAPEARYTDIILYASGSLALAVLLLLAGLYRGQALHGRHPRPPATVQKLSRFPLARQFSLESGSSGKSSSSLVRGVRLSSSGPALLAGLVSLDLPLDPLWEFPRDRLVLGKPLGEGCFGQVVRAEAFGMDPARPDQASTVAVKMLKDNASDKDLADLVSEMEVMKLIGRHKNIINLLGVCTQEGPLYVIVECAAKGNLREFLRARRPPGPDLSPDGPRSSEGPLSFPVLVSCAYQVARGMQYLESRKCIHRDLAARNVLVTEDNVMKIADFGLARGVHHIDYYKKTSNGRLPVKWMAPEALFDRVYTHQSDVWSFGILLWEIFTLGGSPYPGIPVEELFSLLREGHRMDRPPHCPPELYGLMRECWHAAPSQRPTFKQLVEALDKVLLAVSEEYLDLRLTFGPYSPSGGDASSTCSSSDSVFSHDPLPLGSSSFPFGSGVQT

TrkA = TrkA (Homo sapiens, UniProt P04629); assay: Tyrosine kinase inhibition; assay type: biochemical
Sequence of TrkA (P04629 33-796): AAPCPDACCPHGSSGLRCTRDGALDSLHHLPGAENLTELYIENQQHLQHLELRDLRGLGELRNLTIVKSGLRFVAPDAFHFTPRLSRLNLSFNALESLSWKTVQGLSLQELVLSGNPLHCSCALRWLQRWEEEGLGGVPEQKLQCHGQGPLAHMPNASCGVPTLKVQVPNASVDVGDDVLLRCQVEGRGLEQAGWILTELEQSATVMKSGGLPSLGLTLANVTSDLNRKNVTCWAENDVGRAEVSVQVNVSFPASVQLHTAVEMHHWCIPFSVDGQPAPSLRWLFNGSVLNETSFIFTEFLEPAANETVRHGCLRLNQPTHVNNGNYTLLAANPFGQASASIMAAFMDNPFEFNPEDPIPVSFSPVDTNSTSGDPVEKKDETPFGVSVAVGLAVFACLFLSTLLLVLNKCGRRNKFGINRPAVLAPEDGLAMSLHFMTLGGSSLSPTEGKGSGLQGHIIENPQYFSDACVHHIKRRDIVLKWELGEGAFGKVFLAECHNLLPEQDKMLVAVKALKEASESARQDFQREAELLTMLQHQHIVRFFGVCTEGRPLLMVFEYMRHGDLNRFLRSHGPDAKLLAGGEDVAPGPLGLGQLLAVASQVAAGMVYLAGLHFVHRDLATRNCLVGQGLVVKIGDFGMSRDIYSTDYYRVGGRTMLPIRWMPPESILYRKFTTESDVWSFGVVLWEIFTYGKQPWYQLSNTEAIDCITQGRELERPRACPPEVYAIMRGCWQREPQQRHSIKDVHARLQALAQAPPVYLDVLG

[4] = With prior immunotherapy treatment (N=43)
[5] = Without prior immunotherapy treatment (N=165)

COc1cc2c(Nc3ccc(Br)cc3F)ncnc2cc1OCCCCN(C)C.Cl.Cl [HA121-28, N-(4-bromo-2-fluorophenyl)-7-(4-(dimethylamino)butoxy)-6-methoxy quinazolin-4-amine dihydrochloride]
incidence of ≥ grade-3 TRAE ([1]; 43 patients with previous immunotherapy): 58.1% | incidence of ≥ grade-3 TRAE ([1]; 165 patients without previous immunotherapy): 41.2% | TRAE, All: ALT increased [1, 4]: 22 (51.2) count (percentage) | TRAE, All: AST increased [1, 4]: 19 (44.2) count (percentage) | TRAE, All: Anemia [1, 4]: 5 (11.6) count (percentage) | TRAE, All: Any [1, 4]: 42 (97.7) count (percentage) | TRAE, All: Blood creatinine increased [1, 4]: 11 (25.6) count (percentage) | TRAE, All: Decreased appetite [1, 4]: 7 (16.3) count (percentage) | TRAE, All: Decreased lymphocyte counts [1, 4]: 5 (11.6) count (percentage) | TRAE, All: Diarrhea [1, 4]: 32 (74.4) count (percentage) | TRAE, All: Fatigue [1, 4]: 6 (14.0) count (percentage) | TRAE, All: Hypertension [1, 4]: 5 (11.6) count (percentage) | TRAE, All: Hypoalbuminemia [1, 4]: 5 (11.6) count (percentage) | TRAE, All: Hypokalemia [1, 4]: 9 (20.9) count (percentage) | TRAE, All: Nausea [1, 4]: 6 (14.0) count (percentage) | TRAE, All: Neutrophil counts decreased [1, 4]: 7 (16.3) count (percentage) | TRAE, All: Platelet counts decreased [1, 4]: 7 (16.3) count (percentage) | TRAE, All: Prolonged QT interval [1, 4]: 23 (53.5) count (percentage) | TRAE, All: Proteinuria [1, 4]: 17 (39.5) count (percentage) | TRAE, All: Rash [1, 4]: 31 (72.1) count (percentage) | TRAE, All: Vomiting [1, 4]: 7 (16.3) count (percentage) | TRAE, All: Weight loss [1, 4]: 6 (14.0) count (percentage) | TRAE, All: White blood cell counts decreased [1, 4]: 7 (16.3) count (percentage) | TRAE, ≥ Grade 3: ALT increased [1, 4]: 1 (2.3) count (percentage) | TRAE, ≥ Grade 3: AST increased [1, 4]: 1 (2.3) count (percentage) | TRAE, ≥ Grade 3: Anemia [1, 4]: 0 count (percentage) | TRAE, ≥ Grade 3: Any [1, 4]: 25 (58.1) count (percentage) | TRAE, ≥ Grade 3: Blood creatinine increased [1, 4]: 0 count (percentage) | TRAE, ≥ Grade 3: Decreased appetite [1, 4]: 0 count (percentage) | TRAE, ≥ Grade 3: Decreased lymphocyte counts [1, 4]: 0 count (percentage) | TRAE, ≥ Grade 3: Diarrhea [1, 4]: 4 (9.3) count (percentage) | TRAE, ≥ Grade 3: Fatigue [1, 4]: 0 count (percentage) | TRAE, ≥ Grade 3: Hypertension [1, 4]: 0 count (percentage) | TRAE, ≥ Grade 3: Hypoalbuminemia [1, 4]: 0 count (percentage) | TRAE, ≥ Grade 3: Hypokalemia [1, 4]: 3 (7.0) count (percentage) | TRAE, ≥ Grade 3: Nausea [1, 4]: 0 count (percentage) | TRAE, ≥ Grade 3: Neutrophil counts decreased [1, 4]: 3 (7.0) count (percentage) | TRAE, ≥ Grade 3: Platelet counts decreased [1, 4]: 0 count (percentage) | TRAE, ≥ Grade 3: Prolonged QT interval [1, 4]: 12 (27.9) count (percentage) | TRAE, ≥ Grade 3: Proteinuria [1, 4]: 0 count (percentage) | TRAE, ≥ Grade 3: Rash [1, 4]: 3 (7.0) count (percentage) | TRAE, ≥ Grade 3: Vomiting [1, 4]: 0 count (percentage) | TRAE, ≥ Grade 3: Weight loss [1, 4]: 0 count (percentage) | TRAE, ≥ Grade 3: White blood cell counts decreased [1, 4]: 1 (2.3) count (percentage) | TRAE, All: ALT increased [1, 5]: 52 (31.5) count (percentage) | TRAE, All: AST increased [1, 5]: 52 (31.5) count (percentage) | TRAE, All: Anemia [1, 5]: 14 (8.5) count (percentage) | TRAE, All: Any [1, 5]: 161 (97.6) count (percentage) | TRAE, All: Blood creatinine increased [1, 5]: 33 (20.0) count (percentage) | TRAE, All: Decreased appetite [1, 5]: 25 (15.2) count (percentage) | TRAE, All: Decreased lymphocyte counts [1, 5]: 5 (3.0) count (percentage) | TRAE, All: Diarrhea [1, 5]: 125 (75.8) count (percentage) | TRAE, All: Fatigue [1, 5]: 22 (13.3) count (percentage) | TRAE, All: Hypertension [1, 5]: 22 (13.3) count (percentage) | TRAE, All: Hypoalbuminemia [1, 5]: 20 (12.1) count (percentage) | TRAE, All: Hypokalemia [1, 5]: 26 (15.8) count (percentage) | TRAE, All: Nausea [1, 5]: 37 (22.4) count (percentage) | TRAE, All: Neutrophil counts decreased [1, 5]: 13 (7.9) count (percentage) | TRAE, All: Platelet counts decreased [1, 5]: 12 (7.3) count (percentage) | TRAE, All: Prolonged QT interval [1, 5]: 76 (46.1) count (percentage) | TRAE, All: Proteinuria [1, 5]: 48 (29.1) count (percentage) | TRAE, All: Rash [1, 5]: 88 (53.3) count (percentage) | TRAE, All: Vomiting [1, 5]: 30 (18.2) count (percentage) | TRAE, All: Weight loss [1, 5]: 6 (3.6) count (percentage) | TRAE, All: White blood cell counts decreased [1, 5]: 14 (8.5) count (percentage) | TRAE, ≥ Grade 3: ALT increased [1, 5]: 3 (1.8) count (percentage) | TRAE, ≥ Grade 3: AST increased [1, 5]: 3 (1.8) count (percentage) | TRAE, ≥ Grade 3: Anemia [1, 5]: 1 (0.6) count (percentage) | TRAE, ≥ Grade 3: Any [1, 5]: 68 (41.2) count (percentage) | TRAE, ≥ Grade 3: Blood creatinine increased [1, 5]: 2 (1.2) count (percentage) | TRAE, ≥ Grade 3: Decreased appetite [1, 5]: 4 (2.4) count (percentage) | TRAE, ≥ Grade 3: Decreased lymphocyte counts [1, 5]: 0 count (percentage) | TRAE, ≥ Grade 3: Diarrhea [1, 5]: 12 (7.3) count (percentage) | TRAE, ≥ Grade 3: Fatigue [1, 5]: 0 count (percentage) | TRAE, ≥ Grade 3: Hypertension [1, 5]: 14 (8.5) count (percentage) | TRAE, ≥ Grade 3: Hypoalbuminemia [1, 5]: 1 (0.6) count (percentage) | TRAE, ≥ Grade 3: Hypokalemia [1, 5]: 4 (2.4) count (percentage) | TRAE, ≥ Grade 3: Nausea [1, 5]: 2 (1.2) count (percentage) | TRAE, ≥ Grade 3: Neutrophil counts decreased [1, 5]: 1 (0.6) count (percentage) | TRAE, ≥ Grade 3: Platelet counts decreased [1, 5]: 1 (0.6) count (percentage) | TRAE, ≥ Grade 3: Prolonged QT interval [1, 5]: 26 (15.8) count (percentage) | TRAE, ≥ Grade 3: Proteinuria [1, 5]: 0 count (percentage) | TRAE, ≥ Grade 3: Rash [1, 5]: 7 (4.2) count (percentage) | TRAE, ≥ Grade 3: Vomiting [1, 5]: 2 (1.2) count (percentage) | TRAE, ≥ Grade 3: Weight loss [1, 5]: 0 count (percentage) | TRAE, ≥ Grade 3: White blood cell counts decreased [1, 5]: 2 (1.2) count (percentage) | ≥ grade-3 TRAE decreased neutrophil counts ([1]; with previous immunotherapy): 7.0% | ≥ grade-3 TRAE hypertension ([1]; with previous immunotherapy): 0% | ≥ grade-3 TRAE prolonged QT interval ([1]; with previous immunotherapy): 27.9% | ≥ grade-3 TRAE decreased neutrophil counts ([1]; without previous immunotherapy): 0.6% | ≥ grade-3 TRAE hypertension ([1]; without previous immunotherapy): 8.5% | ≥ grade-3 TRAE prolonged QT interval ([1]; without previous immunotherapy): 15.8% | IC50 (FLT-1): 20.9 nM | IC50 (EphA1): 86.9 nM | RTV ±SD ([2]; 12.5 mg/kg): 11.2±4.7 | T/C ([2]; 12.5 mg/kg): 54.6% | Terminal Tumor Volume ([2]; 12.5 mg/kg): 1860.7±1044.5 mm^3 | RTV ±SD ([2]; 25 mg/kg): 8.7±5.9 | T/C ([2]; 25 mg/kg): 42.6% | Terminal Tumor Volume ([2]; 25 mg/kg): 1329.3±1001.3* mm^3 | RTV ±SD ([2]; 50 mg/kg): 5.7±3.1 | T/C ([2]; 50 mg/kg): 27.7% | Terminal Tumor Volume ([2]; 50 mg/kg): 879.7±405.8** mm^3 | plasma protein binding rate (Plasma protein binding): 92.5±0.331% | respiratory function and neurological behavior [3]: did not affect | IC50 (FGFR4): 953 nM | IC50 (TrkA): 1360 nM
